How the values were obtained:
XIAP BIR2 protein = XIAP BIR2 protein (Homo sapiens, UniProt P98170); experiment: Fluorescence polarization competition binding assay, XIAP BIR2; conditions: displacement of AVPIAQK(FAM)-OH, fluorescence polarization; read-out: Target Binding BIR2 Ki
Description: (§1) The SMAC mimetics 1-9 were tested for their ability to displace the fluorescent labeled peptide AVPIAQK(FAM)-OH from XIAP BIR2 or XIAP BIR3 protein. The dose dependent binding experiment were then carried out by sequentially increasing the concentration of SMAC mimetic compounds at constant concentration of fluorescent labeled peptide and XIAP BIR2 or XIAP BIR3 protein. IC5- values were determined from the plot draw by prism software using nonlinear least-squares analysis. The Ki values of the SMAC mimetics were calculated which was based upon the measured IC50 values, the Kd value between tracer AVPIAQK(FAM)-OH and XIAP BIR2 or XIAP BIR3 complex, and the concentrations of the protein and tracer in the competition assay by using the web based program which are freely accessed at http://sw16.im.med.umich.edu/software/calc_ki/.In-silico.
(§2) Binding isotherms were plotted between FP reading versus log values of protein concentration in nM. The data was analysed using GraphPad prism and Kd values were determined using Boltzmann-sigmoidal non-linear regression curve fitting.

XIAP BIR3 protein = XIAP BIR3 protein (Homo sapiens, UniProt P98170); experiment: Fluorescence polarization competition binding assay, XIAP BIR3; conditions: displacement of AVPIAQK(FAM)-OH, fluorescence polarization; read-out: Target Binding BIR3 Ki
Chain of XIAP BIR3 protein (P98170 241-356 limits assumed): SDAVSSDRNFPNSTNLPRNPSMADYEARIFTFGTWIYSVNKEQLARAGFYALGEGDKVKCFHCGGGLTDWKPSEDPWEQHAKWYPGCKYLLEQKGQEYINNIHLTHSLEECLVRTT
Description: as §1, §2

SW 620 cells = experiment: SRB cytotoxicity assay, SW 620; assay type: cell-based; conditions: Homo sapiens, SW-620
Description: (§3) In vitro cytotoxic activities of different compounds were assessed by using standard SRB assay in different cells. The absorbance of the treated and untreated cells was measured on a multi-well scanning spectrophotometer (Epoch Microplate Reader, Biotek, USA) at a wavelength of 510 nm. Percent growth inhibition was calculated by using the formula […].

[1] = SRB cytotoxicity assay, VERO; assay type: cell-based, monkey; conditions: monkey, VERO cells; 10 μM, 48 hours, SRB assay; read-out: In vitro cytotoxicity at 10 μM dose, VERO (percent growth inhibition)
Description: as §3

VERO cells = experiment: SRB cytotoxicity assay, VERO; assay type: cell-based, monkey
Description: as §3

SK-OV-3 cells = experiment: SRB cytotoxicity assay, SK-OV-3; assay type: cell-based; conditions: Homo sapiens, Ovary
Description: as §3
(§4) SMAC mimetics promotes tumor cell selective cytotoxic effects. SW 620, HT 29, HCT 116 and VERO cells were treated with series of Smac mimetics at 10 μM dose for 48 hours and cytotoxicity was measured by SRB assay. As C6 had shown robust in-vitro cytotoxic effect against tumor cells but not to VERO cells, we determined IC50 value of C6 against different types of cancer cell lines. ICso values are represented in Table 2.

PANC-1 cells = experiment: SRB cytotoxicity assay, PANC-1; assay type: cell-based; conditions: Homo sapiens, Pancreas
Description: as §3, §4

B-16 cells = experiment: SRB cytotoxicity assay, B-16; assay type: cell-based; conditions: B16, Melanoma (Mouse)
Description: as §3, §4

in vivo = conditions: mouse
Description: (§5) SIF, SGF and other stability studies were performed by following standard protocol. […] Mice were administered their respective doses according to body weight by intravenous (lateral vein), Subcutaneous route and Oral respectively. Blood samples were collected at 0.083, 0.25, 0.5, 0.75, 1, 2, 4, 8, 12, 24 and 48 hours. Plasma was separated and processed for analysis. For pharmacokinetic analysis, plasma concentration versus time data were plotted and analyzed by non-compartmental analysis method using WinNonlin (Pharsight, Mountain View, CA) software.

[2] = Pharmacokinetics of C6 in mice (IV, SC, oral)
Description: as §5

Chain of XIAP BIR2 protein (P98170 124-240 limits assumed): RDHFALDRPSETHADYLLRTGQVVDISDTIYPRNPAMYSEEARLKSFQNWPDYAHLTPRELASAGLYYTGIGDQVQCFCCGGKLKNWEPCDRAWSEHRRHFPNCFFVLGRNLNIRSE

Structure (SMILES): CC[C@H](C)[C@H](NC(=O)[C@@H]1CC[C@H](c2ccc(C)o2)N1C(=O)[C@@H](NC(=O)[C@H](C)NC)C(C)C)C(=O)NC(c1ccccc1)c1ccccc1 [Compound 6, (2S,5R)-N-((2S,3S)-1-(benzhydrylamino)-3-methyl-1-oxopentan-2-yl)-1-((S)-3-methyl-2-((S)-2-(methylamino)propanamido)butanoyl)-5-(5-methylfuran-2-yl)pyrrolidine-2-carboxamide]
- Ki (XIAP BIR2 protein): 3.21 µM
- Ki (XIAP BIR3 protein): 580 nM
- inhibition at 10 µM (SW 620 cells; 10 μM, 48 hours, SRB assay, read-out: In vitro cytotoxicity at 10 μM dose, SW 620 (percent growth inhibition)): 59.27 ± 0.1%
- IC50 (SW 620 cells; Colon, SW620): 4.31 µM
- inhibition at 48 h, 10 μM [1]: 18.4 ± 2.1%
- IC50 (VERO cells; Primates, Kidney (monkey), VERO): > 10 µM
- Toxicity against VERO cells (in words) (VERO cells; non-human VERO cells): limited or minimal toxicity
- IC50 (SK-OV-3 cells): 3.91 µM
- IC50 (PANC-1 cells): 5.83 µM
- IC50 (B-16 cells): 6.7 µM
- half-life (in vivo; iv, 4 mg/kg): 11.4 ± 3 min
- half-life (in vivo; po, 30 mg/kg): 230 ± 108 min
- half-life (in vivo; sc, 30 mg/kg): 126 ± 9 min
- C1 ([2]; mice, IV route, 4 mg/kg): 1.02 ± 0.24 L/h/kg
- C1 ([2]; mice, Oral route, 30 mg/kg): 1.79 ± 0.32 L/h/kg
- Vd ([2]; mice, Oral route, 30 mg/kg): 9.52 ± 3.75 L/kg
- C1 ([2]; mice, SC route, 30 mg/kg): 1.75 ± 0.24 L/h/kg
- Vd ([2]; mice, SC route, 30 mg/kg): 5.32 ± 0.98 L/kg
- AUC(0-inf) ([2]; mouse, plasma, iv, 4 mg/kg): 4110 ± 852 ng·h/mL
- Cmax ([2]; mouse, plasma, iv, 4 mg/kg): 10200 ± 2630 ng/mL
- MRT ([2]; mouse, plasma, iv, 4 mg/kg): 1.72 ± 0.46 h
- Tmax ([2]; mouse, plasma, iv, 4 mg/kg): 4.8 min
- Vd ([2]; mouse, plasma, iv, 4 mg/kg): 0.28 ± 0.12 L/kg
- bioavailability ([2]; mouse, plasma, oral, 30 mg/kg): 55.9 ± 11.2%
- AUC(0-inf) ([2]; mouse, plasma, po, 30 mg/kg): 17200 ± 3430 ng·h/mL
- Cmax ([2]; mouse, plasma, po, 30 mg/kg): 4490 ± 1510 ng/mL
- MRT ([2]; mouse, plasma, po, 30 mg/kg): 4.18 ± 1.81 h
- Tmax ([2]; mouse, plasma, po, 30 mg/kg): 64.8 ± 28.2 min
- AUC(0-inf) ([2]; mouse, plasma, sc, 30 mg/kg): 17400 ± 2220 ng·h/mL
- Cmax ([2]; mouse, plasma, sc, 30 mg/kg): 5020 ± 854 ng/mL
- MRT ([2]; mouse, plasma, sc, 30 mg/kg): 8.92 ± 1.35 h
- Tmax ([2]; mouse, plasma, sc, 30 mg/kg): 52.8 ± 12.6 min
- bioavailability ([2]; mouse, plasma, subcutaneous, 30 mg/kg): 56.6 ± 7.21%

— patent US20240083846A1, “SMAC MIMETICS FOR TREATMENT OF CANCER, PROCESS FOR PREPARATION AND PHARMACEUTICAL COMPOSITION THEREOF” (COUNCIL OF SCIENTIFIC & INDUSTRIAL RESEARCH, priority 2020, published 2024)
